According to patent publication US5955076A, “Immunoactive peptides and antibodies and their use in anti-allergy treatment” (Peptide Therapeutics Limited, priority 1989, dated 1999):
Where no end group is shown, it is not given here.

Columns and labels:
[1] = system: rat peritoneal mast cells; parameters: dose or concentration left out as unconfirmed; details: concentration range; in words; cited from earlier work
[2] = system: rats experimentally sensitised to ovalbumin; assay: Serum histamine after systemic ovalbumin challenge of immunised, experimentally sensitised rats; assay type: in vivo, rat

For “KTKGSGFF [octapeptide (sequence 497-504)]”, the “non-cytolytic release of histamine from rat peritoneal mast cells in vitro” value (“non-cytolytic release of histamine” below) [1] is listed as “dose-dependent histamine release”.
For “KTKGSGFFVF [decapeptide (sequence 497-506)]”, the “non-cytolytic release of histamine” value [1] is given as “dose-dependent histamine release”.
“Lys-Tyr-Asn-Gly-Ser-Asn-Gln-Arg-Phe-Phe-Ile-Phe-NH2 (KYNGSNQRFFIF-NH2) [F49, histamine releasing rat ε-chain dodecapeptide, used as immunogen]” showed a Histamine release ([2]; A = immunised before experimental sensitisation, Control A 300) of 0 ng/mL and a Histamine release ([2]; B = immunised after experimental sensitisation, Control B 950) of 50 ng/mL.
For “RKTKGSGFF [nonapeptide (sequence 496-504)]”, the “non-cytolytic release of histamine” value [1] is listed as “dose-dependent histamine release”.
